Source: BindingDB's records for doi:10.1515/dmdi.1990.8.1-2.85 (Duphar, 1990)

What was measured:
Mu-type opioid receptor = Mu-type opioid receptor (Rattus norvegicus, UniProt P33535)
[1] = biological target: 5-hydroxytryptamine receptor 2A (Rattus norvegicus, UniProt P14842)
[2] = biological target: Delta-type opioid receptor (Rattus norvegicus, UniProt P33533)
[3] = biological target: Kappa-type opioid receptor (Rattus norvegicus, UniProt P34975)
D(2) dopamine receptor = D(2) dopamine receptor (Rattus norvegicus, UniProt P61169)
[4] = biological target: 5-hydroxytryptamine receptor 3A (Mus musculus, UniProt P23979)
5-hydroxytryptamine receptor 3A, sequence (P23979 as listed by the source): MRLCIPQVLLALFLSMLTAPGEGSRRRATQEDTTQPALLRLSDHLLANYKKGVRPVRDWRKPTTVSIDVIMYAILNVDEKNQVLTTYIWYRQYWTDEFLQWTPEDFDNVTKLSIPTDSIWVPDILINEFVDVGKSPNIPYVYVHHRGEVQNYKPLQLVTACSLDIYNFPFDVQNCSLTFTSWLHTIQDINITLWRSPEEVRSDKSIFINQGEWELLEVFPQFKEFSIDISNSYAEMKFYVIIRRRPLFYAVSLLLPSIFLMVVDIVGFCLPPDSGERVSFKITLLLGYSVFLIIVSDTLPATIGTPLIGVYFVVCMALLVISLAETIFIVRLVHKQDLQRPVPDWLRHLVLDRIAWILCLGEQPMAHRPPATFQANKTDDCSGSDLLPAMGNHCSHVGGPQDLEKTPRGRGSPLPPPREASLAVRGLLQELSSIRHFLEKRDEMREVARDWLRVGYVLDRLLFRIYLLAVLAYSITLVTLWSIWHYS

[5] = biological target: Beta-1 adrenergic receptor (Rattus norvegicus, UniProt P18090)
[6] = biological target: 5-hydroxytryptamine 1D receptor (Bos taurus, UniProt Q8MI13)
[7] = biological target: 5-hydroxytryptamine receptor 1B (Rattus norvegicus, UniProt P28564)
5-hydroxytryptamine receptor 1B, sequence (P28564 whole entry): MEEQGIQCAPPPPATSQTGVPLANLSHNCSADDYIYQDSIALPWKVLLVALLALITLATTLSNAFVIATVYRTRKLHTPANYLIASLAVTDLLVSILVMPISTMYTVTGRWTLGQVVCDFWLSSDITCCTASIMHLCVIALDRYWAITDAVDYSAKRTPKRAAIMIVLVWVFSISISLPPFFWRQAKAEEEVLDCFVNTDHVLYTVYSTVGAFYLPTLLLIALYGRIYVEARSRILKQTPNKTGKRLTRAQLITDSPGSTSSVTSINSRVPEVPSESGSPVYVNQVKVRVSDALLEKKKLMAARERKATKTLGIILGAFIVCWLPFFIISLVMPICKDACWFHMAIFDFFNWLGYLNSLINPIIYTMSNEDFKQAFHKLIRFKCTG

[8] = biological target: Alpha-1A adrenergic receptor (Rattus norvegicus, UniProt P43140)
Alpha-1A adrenergic receptor, sequence (P43140 whole entry): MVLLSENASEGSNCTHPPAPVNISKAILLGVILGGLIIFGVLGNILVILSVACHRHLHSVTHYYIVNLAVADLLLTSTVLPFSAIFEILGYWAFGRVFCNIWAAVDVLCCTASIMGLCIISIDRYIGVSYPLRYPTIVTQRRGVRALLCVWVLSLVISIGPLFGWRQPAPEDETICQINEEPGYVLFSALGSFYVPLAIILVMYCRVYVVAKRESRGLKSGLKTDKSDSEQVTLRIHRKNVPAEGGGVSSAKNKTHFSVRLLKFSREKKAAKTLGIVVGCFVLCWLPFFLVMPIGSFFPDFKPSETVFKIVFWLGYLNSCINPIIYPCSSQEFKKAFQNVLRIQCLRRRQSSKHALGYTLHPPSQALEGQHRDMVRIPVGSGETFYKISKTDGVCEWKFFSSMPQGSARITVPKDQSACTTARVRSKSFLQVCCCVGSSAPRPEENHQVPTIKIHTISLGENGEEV

[9] = biological target: Calcium release-activated calcium channel protein 1 (Homo sapiens, UniProt Q96D31)
Calcium release-activated calcium channel protein 1, sequence (Q96D31 whole entry): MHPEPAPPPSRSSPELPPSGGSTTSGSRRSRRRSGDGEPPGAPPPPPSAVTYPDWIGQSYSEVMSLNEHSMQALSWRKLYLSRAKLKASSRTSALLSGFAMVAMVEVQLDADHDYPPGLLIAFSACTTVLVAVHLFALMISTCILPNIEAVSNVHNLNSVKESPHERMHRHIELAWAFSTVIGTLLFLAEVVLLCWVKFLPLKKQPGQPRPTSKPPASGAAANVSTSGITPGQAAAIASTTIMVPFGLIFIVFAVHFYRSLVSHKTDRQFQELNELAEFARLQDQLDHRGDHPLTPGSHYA

[10] = biological target: Gamma-aminobutyric acid receptor subunit alpha-1 (Rattus norvegicus, UniProt P62813)
Gamma-aminobutyric acid receptor subunit alpha-1, sequence (P62813 whole entry): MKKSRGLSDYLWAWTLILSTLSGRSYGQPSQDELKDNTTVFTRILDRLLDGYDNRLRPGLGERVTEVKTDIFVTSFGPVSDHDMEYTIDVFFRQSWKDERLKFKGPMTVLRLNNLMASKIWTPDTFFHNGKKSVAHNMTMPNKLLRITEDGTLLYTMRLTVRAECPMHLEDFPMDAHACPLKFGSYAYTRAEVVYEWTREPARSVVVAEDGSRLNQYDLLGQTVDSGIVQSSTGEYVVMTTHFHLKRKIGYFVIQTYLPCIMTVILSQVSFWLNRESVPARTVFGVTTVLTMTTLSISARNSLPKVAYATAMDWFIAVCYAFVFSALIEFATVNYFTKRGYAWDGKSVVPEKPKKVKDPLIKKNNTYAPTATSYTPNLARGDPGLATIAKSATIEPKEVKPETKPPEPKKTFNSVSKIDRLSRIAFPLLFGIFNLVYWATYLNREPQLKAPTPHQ

[11] = biological target: 5-hydroxytryptamine receptor 2C (Sus scrofa, UniProt G7ZKZ7)
5-hydroxytryptamine receptor 2C, sequence (G7ZKZ7 whole entry): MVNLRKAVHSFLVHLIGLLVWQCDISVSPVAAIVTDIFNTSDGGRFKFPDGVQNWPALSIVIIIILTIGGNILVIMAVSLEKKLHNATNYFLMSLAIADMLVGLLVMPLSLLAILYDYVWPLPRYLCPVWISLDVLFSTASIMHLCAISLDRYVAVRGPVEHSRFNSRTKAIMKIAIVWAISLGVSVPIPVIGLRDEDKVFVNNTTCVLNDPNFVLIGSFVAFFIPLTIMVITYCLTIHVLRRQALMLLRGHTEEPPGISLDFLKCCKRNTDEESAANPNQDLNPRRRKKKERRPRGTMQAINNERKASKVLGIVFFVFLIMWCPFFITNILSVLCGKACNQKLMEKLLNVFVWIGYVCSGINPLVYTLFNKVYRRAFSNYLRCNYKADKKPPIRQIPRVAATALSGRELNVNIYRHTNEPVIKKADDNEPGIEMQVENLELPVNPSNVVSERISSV

[12] = biological target: Alpha-2C adrenergic receptor (Rattus norvegicus, UniProt P22086)
[13] = biological target: Voltage-dependent calcium channel gamma-1 subunit (Homo sapiens, UniProt Q06432)
Voltage-dependent calcium channel gamma-1 subunit, sequence (Q06432 whole entry): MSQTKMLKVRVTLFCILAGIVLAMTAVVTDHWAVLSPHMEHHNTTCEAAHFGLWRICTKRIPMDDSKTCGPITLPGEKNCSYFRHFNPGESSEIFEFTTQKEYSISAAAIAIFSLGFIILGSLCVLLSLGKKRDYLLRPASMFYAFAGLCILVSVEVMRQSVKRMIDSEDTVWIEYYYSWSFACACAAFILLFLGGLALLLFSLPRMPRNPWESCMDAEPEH

[14] = biological target: Gastrin/cholecystokinin type B receptor (Rattus norvegicus, UniProt P30553)
Gastrin/cholecystokinin type B receptor, sequence (P30553 whole entry): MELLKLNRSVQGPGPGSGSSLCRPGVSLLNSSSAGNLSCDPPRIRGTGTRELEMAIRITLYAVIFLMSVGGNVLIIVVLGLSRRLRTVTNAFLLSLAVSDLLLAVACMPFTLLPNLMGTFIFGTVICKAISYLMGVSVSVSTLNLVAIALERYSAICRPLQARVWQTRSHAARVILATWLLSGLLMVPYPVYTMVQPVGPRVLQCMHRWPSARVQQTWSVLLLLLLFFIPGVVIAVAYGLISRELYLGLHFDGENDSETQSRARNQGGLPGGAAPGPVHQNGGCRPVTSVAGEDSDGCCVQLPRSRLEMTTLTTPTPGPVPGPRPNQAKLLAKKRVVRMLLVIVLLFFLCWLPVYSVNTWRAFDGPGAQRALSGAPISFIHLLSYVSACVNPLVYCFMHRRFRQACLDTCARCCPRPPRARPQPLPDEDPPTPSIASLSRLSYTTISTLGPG

[15] = biological target: Muscarinic acetylcholine receptor M2 (Rattus norvegicus, UniProt P10980)
[16] = biological target: Muscarinic acetylcholine receptor M1 (Rattus norvegicus, UniProt P08482)
[17] = biological target: Muscarinic acetylcholine receptor M3 (Rattus norvegicus, UniProt P08483)
D(1A) dopamine receptor = D(1A) dopamine receptor (Rattus norvegicus, UniProt P18901)
D(1A) dopamine receptor, sequence (P18901 whole entry): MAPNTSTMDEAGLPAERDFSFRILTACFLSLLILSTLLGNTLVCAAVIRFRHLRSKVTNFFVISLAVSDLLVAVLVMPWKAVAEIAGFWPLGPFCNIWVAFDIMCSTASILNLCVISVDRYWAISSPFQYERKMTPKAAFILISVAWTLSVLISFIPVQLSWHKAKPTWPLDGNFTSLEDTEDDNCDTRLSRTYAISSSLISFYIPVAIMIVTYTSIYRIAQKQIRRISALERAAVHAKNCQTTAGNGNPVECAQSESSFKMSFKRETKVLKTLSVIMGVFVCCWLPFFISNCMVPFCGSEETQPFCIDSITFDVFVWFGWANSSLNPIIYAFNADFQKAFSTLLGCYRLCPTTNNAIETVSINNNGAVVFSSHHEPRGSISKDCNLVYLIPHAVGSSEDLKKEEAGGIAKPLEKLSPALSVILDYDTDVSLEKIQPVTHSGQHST

[18] = biological target: Glutamate receptor ionotropic, NMDA 1 (Rattus norvegicus, UniProt P35439)
[19] = biological target: Glycine amidinotransferase, mitochondrial (Rattus norvegicus, UniProt P50442)
Histamine H1 receptor = Histamine H1 receptor (Rattus norvegicus, UniProt P31390)
Histamine H1 receptor, sequence (P31390 whole entry): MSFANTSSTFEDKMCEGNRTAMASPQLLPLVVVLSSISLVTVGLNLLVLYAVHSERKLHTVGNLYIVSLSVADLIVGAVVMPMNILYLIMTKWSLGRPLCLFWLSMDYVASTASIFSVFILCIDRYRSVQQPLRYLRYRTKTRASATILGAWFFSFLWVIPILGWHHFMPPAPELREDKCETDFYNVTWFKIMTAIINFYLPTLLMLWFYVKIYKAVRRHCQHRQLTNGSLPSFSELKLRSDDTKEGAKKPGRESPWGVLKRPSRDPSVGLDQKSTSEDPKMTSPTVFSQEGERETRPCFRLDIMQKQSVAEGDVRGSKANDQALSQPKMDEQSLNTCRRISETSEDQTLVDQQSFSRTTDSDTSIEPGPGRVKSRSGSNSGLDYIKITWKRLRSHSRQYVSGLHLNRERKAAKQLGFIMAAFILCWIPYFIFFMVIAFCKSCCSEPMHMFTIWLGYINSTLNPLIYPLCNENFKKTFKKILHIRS

[20] = biological target: Cysteinyl leukotriene receptor 1 (Cavia porcellus, UniProt Q2NNR5)
Cysteinyl leukotriene receptor 1, sequence (Q2NNR5 whole entry): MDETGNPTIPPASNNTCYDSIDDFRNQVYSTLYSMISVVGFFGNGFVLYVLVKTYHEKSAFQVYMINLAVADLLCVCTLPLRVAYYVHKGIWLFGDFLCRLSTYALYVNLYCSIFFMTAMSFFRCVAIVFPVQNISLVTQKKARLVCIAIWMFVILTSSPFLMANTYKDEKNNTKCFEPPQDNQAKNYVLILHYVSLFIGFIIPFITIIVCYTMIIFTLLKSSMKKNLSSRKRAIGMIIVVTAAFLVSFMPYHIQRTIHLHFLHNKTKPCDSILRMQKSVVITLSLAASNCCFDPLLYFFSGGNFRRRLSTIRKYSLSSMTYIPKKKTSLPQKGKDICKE

[21] = biological target: Sigma non-opioid intracellular receptor 1 (Rattus norvegicus, UniProt Q9R0C9)
Protachykinin-1 = Protachykinin-1 (Rattus norvegicus, UniProt P06767)
[22] = biological target: Pro-thyrotropin-releasing hormone (Rattus norvegicus, UniProt P01150)

Mu-type opioid receptor, sequence (P33535 whole entry): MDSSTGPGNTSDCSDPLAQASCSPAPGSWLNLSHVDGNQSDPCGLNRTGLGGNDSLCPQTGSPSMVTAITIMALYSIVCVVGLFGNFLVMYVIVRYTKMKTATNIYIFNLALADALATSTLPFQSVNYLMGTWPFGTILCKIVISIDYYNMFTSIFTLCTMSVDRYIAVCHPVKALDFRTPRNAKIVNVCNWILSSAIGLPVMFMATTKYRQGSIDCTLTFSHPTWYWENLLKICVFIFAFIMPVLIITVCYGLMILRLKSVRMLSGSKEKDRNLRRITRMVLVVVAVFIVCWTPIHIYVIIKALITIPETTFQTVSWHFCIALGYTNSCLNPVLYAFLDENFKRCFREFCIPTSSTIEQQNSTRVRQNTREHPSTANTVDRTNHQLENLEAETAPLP

Question: For c1cc2c(c(N3CCNCC3)c1)OCCO2 [1-(2,3-Dihydro-benzo[1,4]dioxin-5-yl)-piperazine], which Ki (Mu-type opioid receptor) is on record?
Answer: Its Ki is > 10 µM.

Question: And the Ki [1]?
Answer: Its Ki is 1.7 µM.

Question: What about the Ki [2] of the same compound?
Answer: Its Ki is > 10 µM.

Question: What about the Ki [3] of the same compound?
Answer: Its Ki is > 10 µM.

Question: What about the Ki (D(2) dopamine receptor) of the same compound?
Answer: Its Ki is 1.1 µM.

Question: And the Ki [4]?
Answer: The Ki was 1.3 µM.

Question: And the Ki [5]?
Answer: The Ki was 0.42 µM.

Question: What about the Ki [6] of the same compound?
Answer: The Ki was 0.39 µM.

Question: And the Ki [7]?
Answer: The Ki was 0.052 µM.

Question: What about the Ki [8] of the same compound?
Answer: The Ki was 0.79 µM.

Question: What about the Ki [9] of the same compound?
Answer: The Ki was > 10 µM.

Question: What about the Ki [10] of the same compound?
Answer: The Ki was > 10 µM.

Question: And the Ki [11]?
Answer: The Ki was 0.081 µM.

Question: What about the Ki [12] of the same compound?
Answer: Its Ki is 3.1 µM.

Question: And the Ki [13]?
Answer: Its Ki is > 10 µM.

Question: What about the Ki [14] of the same compound?
Answer: Its Ki is > 10 µM.

Question: And the Ki [15]?
Answer: The Ki was > 10 µM.

Question: And the Ki [16]?
Answer: The Ki was > 10 µM.

Question: What about the Ki [17] of the same compound?
Answer: The Ki was > 10 µM.

Question: And the Ki (D(1A) dopamine receptor)?
Answer: Its Ki is > 10 µM.

Question: And the Ki [18]?
Answer: Its Ki is > 10 µM.

Question: What about the Ki [19] of the same compound?
Answer: The Ki was > 10 µM.

Question: What about the Ki (Histamine H1 receptor) of the same compound?
Answer: The Ki was 3.9 µM.

Question: And the Ki [20]?
Answer: Its Ki is > 10 µM.

Question: And the Ki [21]?
Answer: The Ki was 9.3 µM.

Question: What about the Ki (Protachykinin-1) of the same compound?
Answer: The Ki was > 10 µM.

Question: What about the Ki [22] of the same compound?
Answer: The Ki was > 10 µM.
